In paper PMC5808925 (Nature, 2017):

System: recombinant HLA-DR*0401
Format: binding, human

IKNKIDGETTDYAAPV
affinity for HLA-DR*0401: high affinity
